Measurements reported in paper PMC8581430, “Peptide ligands targeting FGF receptors promote recovery from dorsal root crush injury via AKT/mTOR signaling” (Theranostics, 2021).

System: ERK1/2 (phosphorylated) in DRG explants
Test: Western blot of phosphorylated ERK1/2 in DRG explants
Type: cell-based, rat
Settings: CH02 20 μM + BGJ398 2 μM, 4 h, n = 3
Text: Figure 6 Phosphoproteomic profiling of the intracellular signaling pathway used by CH02 for augmenting nerve regeneration. (A) GO biological process analysis of proteins corresponding to differentially expressed phosphorylated peptides. Ordinates indicate the enriched GO terms; abscissae represent the gene ratio; size of the dots indicates the number of proteins enriched in this biological process. (B) KEGG pathway analysis of proteins corresponding to differentially expressed phosphorylated peptides. Ordinates indicate the enriched pathway term; abscissae represent the gene ratio; size of the dots indicates number of proteins enriched in this pathway. […] (D-E) Quantification of p-ERK1/2 and p-AKT expression levels. n = 3 independent experiments. Relative protein expression level was quantified after normalization to the corresponding total proteins. […] (G-H) Quantification of p-ERK1/2 and p-AKT expression levels. n = 3 independent experiments. Relative protein expression level was quantified after normalization to the corresponding total proteins. […] The axon is shown in fluorescence (NF200) images. […] For quantification of axon length, neurons were immunostained using an antibody against β-tubulin. […] (N) Quantification of TUNEL-positive neurons (M) using ImageJ software (n = 5 for each condition; ***p < 0.001 by one-way ANOVA with Dunnett's test; mean ± SEM). […]

CCN1CCN(c2ccc(Nc3cc(N(C)C(=O)Nc4c(Cl)c(OC)cc(OC)c4Cl)ncn3)cc2)CC1 [BGJ398]
effect of inhibitor on CH02-upregulated phosphorylated ERK: counteracted CH02 effect on upregulating phosphorylated AKT and ERK levels
